Source: ChEMBL document CHEMBL4396950, “A rational search for discovering potential neutraligands of human complement fragment 5a (hC5a)” (Bioorg Med Chem, 2019)
The source made the active and inactive calls. The rule behind the calls is not given here.

How the values were obtained:
[1] = biological target: T1, Complement C5 (Homo sapiens, UniProt P01031); experiment: Binding affinity to recombinant human C5a assessed as conformational change at 1 to 100 uM incubated for 1 hr at 4degC by circular dichroism analysis
[2] = biological target: T1, Complement C5; experiment: Binding affinity to recombinant human C5a assessed as conformational change =< 1 uM at 4 degC incubated for 1 hr by circular dichroism analysis
[3] = biological target: T1, Complement C5; experiment: Binding affinity to recombinant human C5a assessed as loss of super secondary structure at > 10 uM incubated for 1 hr at 4 degC by circular dichroism analysis
[4] = biological target: T1, Complement C5; experiment: Binding affinity to human C5a assessed as dissociation constant after 1 hr by circular dichroism analysis
[5] = biological target: T1, Complement C5; experiment: Binding affinity to human C5a assessed as loss of secondary structure by measuring red shift in absorption maxima at 10 to 100 uM by fluorescence analysis
[6] = biological target: T1, Complement C5; experiment: Binding affinity to human C5a assessed as Potassium iodide-induced quenching by measuring Stern-Volmer quenching constant at 1 uM by fluorescence analysis
[7] = biological target: T1, Complement C5; experiment: Induction of human recombinant C5a unfolding by circular dichroism analysis
[8] = biological target: T1, Complement C5; experiment: Induction of human recombinant C5a destabilization assessed as protein structure helicity up to 10 uM by circular dichroism analysis
[9] = biological target: T1, Complement C5; experiment: Binding affinity to human C5a assessed as induction of conformational change with no shift in absorption maxima at 1 uM by fluorescence analysis
[10] = biological target: T1, Complement C5; experiment: Induction of recombinant human C5a destabilization assessed as intrinsically disordered structure at 2 to 4 M by circular dichroism analysis
[11] = biological target: T1, Complement C5; experiment: Induction of recombinant human C5a destabilization assessed as protein unfolding at 6 M by circular dichroism analysis
[12] = biological target: T1, Complement C5; experiment: Induction of recombinant human C5a destabilization assessed as protein unfolding at 6 M after 1 hr by fluorescence analysis
[13] = biological target: T1, Complement C5; experiment: Induction of recombinant human C5a destabilization assessed as protein unfolding at 6 M incubated for overnight by fluorescence analysis
[14] = biological target: T1, Complement C5; experiment: Induction of recombinant human C5a destabilization assessed as intrinsically disordered structure at 2 to 8 M by circular dichroism analysis
[15] = biological target: T1, Complement C5; experiment: Induction of recombinant human C5a destabilization assessed as intrinsically disordered structure at 8 M incubated for 1 hr by fluorescence analysis
[16] = biological target: T1, Complement C5; experiment: Induction of recombinant human C5a destabilization assessed as intrinsically disordered structure at 8 M incubated for overnight by fluorescence analysis

For `CC1=C(CC(=O)O)c2cc(F)ccc2/C1=C\c1ccc([S+](C)[O-])cc1` (stereo not drawn), the Activity [1] was “Active”, the Activity [2] was “Active” and the Activity [3] was “Active”. For the same compound, the Kd [4] was 570 nM, the Activity [5] was “Active” and the KSV [6] was 2.5 M⁻¹. The Activity [7] was “Active”, the Activity [8] was 5% and the Activity [9] was “Active”.
In the case of `N=C(N)N`, the Activity [10] is reported as “Active”, the Activity [11] is reported as “Active” and the Activity [12] is reported as “Active”. The Activity [13] was “Active”.
`O=C(O)CCc1nc(-c2ccccc2)c(-c2ccccc2)o1` [OXAPROZIN] showed a Kd [4] of 640 nM and a KSV [6] of 4.3 M⁻¹.
Compound `O=C(c1ccc(OCCN2CCCCC2)cc1)c1c(-c2ccc(O)cc2)sc2cc(O)ccc12` [RALOXIFENE] has a Kd [4] of 710 nM and a KSV [6] of 1.1 M⁻¹.
`CC(C(=O)O)c1ccc2c(c1)[nH]c1ccc(Cl)cc12` (stereo not drawn) [CARPROFEN] gave a Kd [4] of 580 nM and a KSV [6] of 2.6 M⁻¹.
For `NC(N)=O`, the Activity [14] was “Active”, the Activity [15] was “Active” and the Activity [16] was “Active”.
`CC(=O)N[C@@H](Cc1c[nH]c2ccccc12)C(N)=O` showed a KSV [6] of 12.4 M⁻¹.
